Assay results published in ChEMBL document CHEMBL1147213, “Impact on farnesyltransferase inhibition of 4-chlorophenyl moiety replacement in the Zarnestra series” (Eur J Med Chem, 2007).

What was measured:
[1] = Inhibition of FTase by SPA; set-up: species or system Homo sapiens
Homo sapiens = organism: Homo sapiens; test: Inhibition of FTase at 100 nM by SPA

## Cn1cncc1C(N)(c1ccc(Cl)cc1)c1ccc2c(c1)c(-c1cccc(Cl)c1)nc1nnnn12 (stereo not drawn)
[1]
  IC50: 3.5 nM

## Cn1cncc1C(c1ccc2c(c1)c(-c1cccc(Cl)c1)nc1nnnn12)n1ccnc1-c1cccc(C#N)c1 (stereo not drawn)
[1]
  IC50: 1 nM

## Cn1cncc1C(c1ccc2c(c1)c(-c1cccc(Cl)c1)nc1nnnn12)n1ccnc1-c1ccccc1 (stereo not drawn)
[1]
  IC50: 1 nM

## CCc1nccn1C(c1ccc2c(c1)c(-c1cccc(Cl)c1)nc1nnnn12)c1cncn1C (stereo not drawn)
[1]
  IC50: 5 nM

## Cn1cncc1C(c1ccc2c(c1)c(-c1cccc(Cl)c1)nc1nnnn12)n1ccnc1-c1ccc(F)cc1 (stereo not drawn)
[1]
  IC50: 4 nM

## N#Cc1ccc(Cn2cncc2C(O)c2ccc3c(c2)c(-c2cccc(Cl)c2)cc2nnnn23)cc1 (stereo not drawn)
[1]
  IC50: 11 nM

## OC(c1ccc2c(c1)c(-c1cccc(Cl)c1)cc1nnnn12)c1cncn1Cc1ccc(Cl)cc1 (stereo not drawn)
[1]
  IC50: > 100 nM
Homo sapiens
  inhibition: 32%

## Cn1cncc1C(O)(c1ccc2c(c1)c(-c1cccc(Cl)c1)nc1nnnn12)c1ccc(Cl)s1 (stereo not drawn)
[1]
  IC50: 16 nM

## Cn1cncc1[C@](N)(c1ccc(Cl)cc1)c1ccc2c(c1)c(-c1cccc(Cl)c1)cc(=O)n2C [(S)-TIPIFARNIB]
[1]
  IC50: 0.9 nM

## Cn1cncc1C(N)(c1ccc2c(c1)c(-c1cccc(Cl)c1)nc1nnnn12)c1ccc(Cl)s1 (stereo not drawn)
[1]
  IC50: < 100 nM
Homo sapiens
  inhibition: 69%

## Cn1cncc1C(N)(c1ccc(Cl)cc1)c1ccc2c(c1)c(-c1cccc(Cl)c1)cc1nnnn12 (stereo not drawn)
[1]
  IC50: 3.5 nM
